Data as given in patent US5776673A, “Treatment and detection of tuberculosis, leprosy, and related diseases” (priority 1995, dated 1998).

Legend:
Taq DNA polymerase [1] = target: T1, Taq DNA polymerase (Thermus aquaticus, UniProt P19821); details: 10 μM 4 dNTPs, ddNTP 100 to 2,000 μM; factor versus F667Y multiplied by its absolute ratio
T7 DNA polymerase [2] = target: T2, T7 DNA polymerase (Escherichia phage T7, UniProt P00581, DEL118-145); type: biochemical, Bacteriophage T7; details: for percentage of counts in the first three dideoxy-terminated fragments to the total number of counts in the primers capable of being extended: 100 μM 4dNTPs and 100 μM of one ddNTP; for M, calculated exponential decay function: 1:1 dNTP:ddNTP, fit Y=e^M*X; for Incorporation Rate Ratios dN/ddN: absolute ratios from 1:1 dNTP:ddNTP test; for D, discrimination factor, ratio of use of dNTP to comparable ddNTP: equal concentrations, D=Y/(1-Y) at X=1
Procedure: (§1) Reaction conditions are used that are optimum for the DNA polymerase being tested with regard to buffer, pH, salts, and temperature of the reaction. A concentration of DNA polymerase is chosen whereby most of the primers are extended in a 10 min reaction and are terminated by the incorporation of a dideoxynucleotide. The reaction mixture contains 100 μM 4dNTPs and 100 μM of one of the four ddNTPs.
(§2) We used this test to compare the ability of six DNA polymerases to incorporate each of the four ddNMPs.
(§3) The reaction mixtures also contained 10 ng of yeast inorganic pyrophosphatase to inhibit pyrophosphorolysis that could otherwise increase the apparent discrimination by the DNA polymerase (Tabor and Richardson 265 J. Biol. Chem. 8322, 1990). The reactions were initiated by the addition of 2 μl of each DNA polymerase, diluted in 20 mM Tris.HCl, pH 7.5, 10 mM 2-mercaptoethanol and 0.05% bovine serum albumin to a concentration of approximately 0.025 units/μl. […] The reactions were terminated by the addition of 10 μl 90% formamide, 20 mM EDTA, 0.05% bromphenol blue. Each sample was heated at 90° C. for 2 min immediately prior to loading 6 μl of each sample onto a gel consisting of 8% polyacrylamide, 0.4% N,N'-methylenebisacrylamide, 7M urea in 100 mM Tris borate, pH 8.3, 1 mM EDTA. Electrophoresis was at 2000 Volts for 90 min (until the bromphenol blue had just run off the bottom of the gel). After electrophoresis, the gel was dried under vacuum, and autoradiographed. After autoradiography, the distribution of radioactively labeled fragments was determined by Phosphorimager analysis (Molecular Dynamics). Alternatively, the relative intensities of dideoxy-terminated bands can be determined by scanning the autoradiograph using an instrument such as the SciScan 5000 imaging densitometer (United States Biochemical Corp).
(§4) The distribution of radioactivity in the fragments was quantitated by Phosphoimager analysis (Molecular Dynamics). The total amount of labeled primers in each lane was determined by running three control reactions in which no DNA polymerase was present, and the radioactivity in each of the corresponding radioactive bands on the gel at the position of the unextended primer was determined. […] This value is defined as the total number of counts in primers that are capable of being extended by a DNA polymerase.
(§5) The values are presented in the Table below as the percentage of counts in the first three dideoxy-terminated fragments to the total number of counts in the primers capable of being extended by a DNA polymerase.
(§6) As a further test of the efficiency of each DNA polymerase to incorporate dideoxynucleotides, the number of counts in each fragment with a significant signal was determined for each reaction, and the data were plotted as a function of the fragment number using the Macintosh program Kaleidograph Version 3.0 (Synergy Software). The resulting plots were fit to an exponential decay curve using the Kaleidograph library routine for this function. The decay curve is given by the equation: […]

Taq DNA polymerase F667Y [3] = target: T3, Taq DNA polymerase F667Y (Thermus aquaticus, UniProt P19821, F667Y); type: biochemical; details: for M, calculated exponential decay function: 1:1 dNTP:ddNTP, fit Y=e^M*X; for Incorporation Rate Ratios dN/ddN: absolute ratios from 1:1 dNTP:ddNTP test; for D, discrimination factor, ratio of use of dNTP to comparable ddNTP: equal concentrations, D=Y/(1-Y) at X=1
Procedure: as §1, §2, §3, §4, §5, §6

T7 DNA polymerase Y526F [4] = target: T4, T7 DNA polymerase Y526F (Escherichia phage T7, UniProt P00581, DEL118-145/Y526F); details: 10 μM 4 dNTPs, ddNTP 100 to 2,000 μM; factor versus T7 DNA polymerase multiplied by its absolute ratio
E. coli DNA polymerase I [5] = target: T5, E. coli DNA polymerase I (Escherichia coli, UniProt P00582); details: 10 μM 4 dNTPs, ddNTP 100 to 2,000 μM; factor versus F762Y multiplied by its absolute ratio
Taq DNA polymerase [6] = target: T1, Taq DNA polymerase; experiment: Competition of dATP and ddATP at a single site in synthetic Primer-Template A (Example 4); type: biochemical; details: 10 μM dATP; read-out: [ddATP] for 50% inhibition
Procedure: (§7) Example 4. Determination of the efficiency of incorporation of dideoxynucleotides by measuring the incorporation of [α-^32 P]dAMP into synthetic primer-template complexes
(§8) In this example the competition between a dNTP and a ddNTP is assayed for use at a single site in a synthetic primer-template. This assay differs from the others in that it limits the comparison of the use of the two substrates to a single site, avoiding the complication of sequence-specific variability in discrimination. […]
(§9) Each reaction mixture contains 25 pmoles each of primer and template. […] The mixtures are incubated at 37° C. for 1 min (70° C. for thermophilic DNA polymerases), and the reactions are initiated by the addition of 5 μl aliquots (0.01 to 1 unit) of the DNA polymerase being analyzed diluted in 20 mM Tris.HCl, pH 7.5, 10 mM 2-mercaptoethanol and 0.05% bovine serum albumin. […] The disks are then dried under a heat lamp and counted in a scintillation counter in 5 ml of fluor (Opti-Fluor O, Packard). From the amount of radioactivity on each disk, the amount [^32 P]dGMP incorporated was determined. […]
(§10) All reactions are carried out with a constant amount of the DNA polymerase being analyzed; the amount of DNA polymerase should be sufficient to replicate 50% of the total […] residues in the single-stranded region of the template in the 10 min incubation in the presence of 10 μM DATP and the absence of ddATP. […]

Taq DNA polymerase F667Y [7] = target: T3, Taq DNA polymerase F667Y; experiment: as above; type: biochemical; details: 10 μM dATP; read-out: [ddATP] for 50% inhibition
Procedure: as §7, §8, §9, §10

E. coli DNA polymerase I [8] = target: T5, E. coli DNA polymerase I; experiment: as above; type: biochemical; parameters: The large fragment of E. coli DNA polymerase I, commonly called the Klenow fragment; details: 10 μM dATP; read-out: [ddATP] for 50% inhibition
Procedure: as §7, §8, §9, §10

T7 DNA polymerase [9] = target: T2, T7 DNA polymerase; experiment: as above; type: biochemical, Bacteriophage T7; details: 10 μM dATP; read-out: [ddATP] for 50% inhibition
Procedure: as §7, §8, §9, §10

T7 DNA polymerase Y526F [10] = target: T4, T7 DNA polymerase Y526F; experiment: as above; type: biochemical, Bacteriophage T7; details: 10 μM dATP; read-out: [ddATP] for 50% inhibition
Procedure: as §7, §8, §9, §10

Row | Compound | Incorporation Rate Ratios dN/ddN (Taq DNA polymerase [1]) | percentage of counts in the first three dideoxy-terminated fragments to the total number of counts in the primers capable of being extended (T7 DNA polymerase [2]) [%] | M, calculated exponential decay function (T7 DNA polymerase [2]) | Incorporation Rate Ratios dN/ddN (T7 DNA polymerase [2]) | D, discrimination factor, ratio of use of dNTP to comparable ddNTP (T7 DNA polymerase [2]) | M, calculated exponential decay function (Taq DNA polymerase F667Y [3]) | Incorporation Rate Ratios dN/ddN (Taq DNA polymerase F667Y [3]) | D, discrimination factor, ratio of use of dNTP to comparable ddNTP (Taq DNA polymerase F667Y [3]) | Incorporation Rate Ratios dN/ddN (T7 DNA polymerase Y526F [4]) | Incorporation Rate Ratios dN/ddN (E. coli DNA polymerase I [5]) | IC50 (Taq DNA polymerase [6]) [µM] | IC50 (Taq DNA polymerase F667Y [7]) [µM] | IC50 (E. coli DNA polymerase I [8]) [µM] | IC50 (T7 DNA polymerase [9]) [µM] | IC50 (T7 DNA polymerase Y526F [10]) [µM]
1 | Cc1cn([C@H]2CC[C@@H](COP(=O)(O)OP(=O)(O)OP(=O)(O)O)O2)c(=O)[nH]c1=O [ddTTP] | 4,500 | 76 | -0.450 | 2.8 | 1.8 | -1.01 | 0.56 | 0.56 | 8,400 | 1,100 | – | – | – | – | –
2 | Nc1nc2c(ncn2[C@H]2CC[C@@H](COP(=O)(O)OP(=O)(O)OP(=O)(O)O)O2)c(=O)[nH]1 [ddGTP] | 1,400 | 67 | -0.375 | 3.2 | 2.2 | -1.18 | 0.45 | 0.45 | 6,400 | 140 | – | – | – | – | –
3 | Nc1ncnc2c1ncn2[C@H]1CC[C@@H](COP(=O)(O)OP(=O)(O)OP(=O)(O)O)O1 [ddATP] | 4,700 | 66 | -0.356 | 3.3 | 2.3 | -0.997 | 0.59 | 0.59 | 7,300 | 720 | > 500 | ~5 | > 500 | ~30 | > 500
4 | Nc1ccn([C@H]2CC[C@@H](COP(=O)(O)OP(=O)(O)OP(=O)(O)O)O2)c(=O)n1 [ddCTP] | 2,600 | 61 | -0.317 | 3.7 | 2.7 | -1.44 | 0.32 | 0.32 | 11,000 | 250 | – | – | – | – | –
